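Cells were grown in 96-well plates and exposed to each compound for 48 hours at five concentrations; endpoints were interpolated linearly between bracketing concentrations, or set to the highest concentration if not reached. The concentration for 50% growth inhibition is given as GI50.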 Activity calls are given as the source filed them. Cut-off read from the data, not from the text of the source: active = GI50 up to about 1.1 µM and inactive = higher.
Columns and labels:
Assay in all cases: NCI-60 cell line screen, 48 h
[1] = test system: A498
[2] = test system: DU-145
[3] = test system: HCT-15
[4] = test system: HOP-92
[5] = test system: HT-29
[6] = test system: Hs-578T
[7] = test system: KM12
[8] = test system: MDA-MB-231
[9] = test system: MDA-MB-435
[10] = test system: NCI-H226
[11] = test system: NCI/ADR-RES
[12] = test system: OVCAR-3
[13] = test system: OVCAR-8
[14] = test system: PC-3
[15] = test system: SK-MEL-2
[16] = test system: SK-OV-3
[17] = test system: SN12C
[18] = test system: SW-620
[19] = test system: UACC-257
[20] = test system: UO-31

Measured: GI50

Fc1ccc(/N=C/C=C/Nc2ccc(F)cc2)cc1
0.31 µM: [3]
inactive: [1] 15.5 µM | [2] 13.5 µM | [4] 17.6 µM | [5] 5.35 µM | [6] 19.9 µM | [7] 3.31 µM | [8] 15.8 µM | [9] 5.3 µM | [10] 19.5 µM | [11] 11.9 µM | [12] 16 µM | [13] 12.9 µM | [14] 8.91 µM | [15] 13.6 µM | [16] 15.3 µM | [17] 14 µM | [18] 3.32 µM | [19] 13.5 µM | [20] 6.73 µM

O=c1[nH][nH]c(=O)n1/N=C/c1ccccc1
inactive: [1] > 100 µM | [2] > 100 µM | [4] > 100 µM | [5] > 100 µM | [6] > 100 µM | [7] > 100 µM | [8] > 100 µM | [9] > 100 µM | [10] > 100 µM | [11] > 100 µM | [12] > 100 µM | [13] > 100 µM | [14] > 100 µM | [15] > 100 µM | [16] > 100 µM | [17] > 100 µM | [18] > 100 µM | [19] > 100 µM | [20] > 100 µM
> 100 µM: [3]

C=CCSS/C=C/C[S+]([O-])CC=C (stereo not given) [AJOENE]
35.5 µM: [3]
inactive: [1] > 100 µM | [2] 68.2 µM | [4] 48.3 µM | [5] 29.9 µM | [6] 26.4 µM | [7] 57.8 µM | [8] 25.2 µM | [9] 18.2 µM | [10] 41.3 µM | [11] 26.2 µM | [12] 37.1 µM | [13] 18.5 µM | [14] 39.1 µM | [15] > 52.2 µM | [16] 64 µM | [17] 26 µM | [18] 7.8 µM | [19] 50.9 µM | [20] 37.8 µM

C[C@@H]1C[C@@H](O)[C@]2(O)O[C@@H]3C[C@@]4(C=O)[C@@H](CC[C@@H]5[C@@H]4CC[C@]4(C)[C@@H](C6=CC(=O)OC6)CC[C@]54O)C[C@H]3O[C@@H]2O1 [CALACTIN]
0.0162 µM: [3]
active: [1] 0.0208 µM | [2] 0.0171 µM | [4] 0.0276 µM | [5] 0.021 µM | [6] 0.0202 µM | [7] 0.0226 µM | [8] 0.0153 µM | [9] 0.0441 µM | [10] 0.0243 µM | [11] 0.0306 µM | [12] 0.00169 µM | [13] 0.0108 µM | [14] 0.0403 µM | [15] 0.0114 µM | [16] 0.0118 µM | [17] 0.00301 µM | [18] 0.0133 µM | [19] 0.0213 µM | [20] 0.0171 µM
